Patent publication US6585954B1, “Method for searching steroid sulfatase inhibitors” (Kyowa Hakko Kogyo Co., Ltd., priority 1998, dated 2003)

Columns and labels:
[1] = system: tumor of transformed cell line carrying the introduced human steroid sulfatase gene (STS); assay: Effect of a steroid sulfatase inhibitor on estrone-3-sulfate-dependent tumor growth in nude mice (Example 5); type: in vivo, BALB/c-nu/nu mice; settings: 0.1 mg/kg estrone-3-sulfate alone, subcutaneously for 22 days; by the 38th day
Protocol: The volume of a tumor can be calculated from the shorter diameter and the longer diameter of the tumor measured with slide calipers according to the following approximation formula.
Tumor volume=(longer diameter)×(shorter diameter)^2÷2
Animals in which the tumor growth was confirmed after administration of estrone-3-sulfate are selected, and a test compound is administered thereto. Then, the tumor volume is measured to estimate the steroid sulfatase-inhibiting activity of the test compound. The test compound may be administered by any of intravenous, subcutaneous, intraperitoneal and oral routes. The steroid sulfatase-inhibiting activity of the compound can be estimated by measuring the tumor volume at intervals of 3-4 days after the administration, and then comparing the tumor growth between the group to which only estrone-3-sulfate was administered and the group to which estrone-3-sulfate and the test compound were administered.
(§1) The cells were suspended at a concentration of 2×10^8 cells/ml and the suspension was mixed with an equal volume of matrigel-basement membrane (Becton & Dickinson). The resulting mixture was subcutaneously transplanted into 7- to 8-weeks-old female BALB/c-nu/nu mice, (nude mice, each group consisting of 5 mice) in an amount of 0.1 ml (1×10^7 cells). […]

[2] = system: transformed cell line carrying the introduced human steroid sulfatase gene (STS); assay: Tumor formation after transplantation of cells carrying an introduced steroid sulfatase gene (Example 4); type: in vivo, BALB/c-nu/nu mice; settings: 0.1 mg/kg estrone-3-sulfate subcutaneously every day, after tumor growth stopped following estrogen preparation
From the text: First, cells carrying the introduced steroid sulfatase gene are transplanted into an animal such as a mouse for fixation to form a tumor. That is, tumor cells carrying the introduced steroid sulfatase gene are transplanted subcutaneously into an immunodeficient mouse, for example, a BALB/c-nu/nu (a nude mouse) or an SCID mouse in an amount of 1-5×10^6 cells to form a tumor. At the time of transplantation, a crude extract of basement membrane containing adhesion factor (e.g., matrigel-basement membrane, Becton & Dickinson) may be added in order to improve the fixation rate [Br. J. Cancer, 67, 953 (1993)]. In the case of estrogen-dependent breast cancer, the fixation rate is improved and the tumor growth after the fixation is promoted by administering an estrogen compound.
as §1, with “cells). On the day of transplantation and 2 weeks later, an estrogen preparation (EP depo, Teikoku Zoki) was intramuscularly administered.” for “cells).”

Question: Which “tumor volume relative to the initial volume” value [1] does the source give for `C[C@]12CC[C@@H]3c4ccc(OS(=O)(=O)O)cc4CC[C@H]3[C@@H]1CCC2=O` [estrone-3-sulfate] here?
Answer: 1.4 times the initial volume

Question: What about the “tumor growth after administration” value [2] of the same molecule?
Answer: the tumor grew in all mice and there was no reduction of tumor
